Laboratory results taken from US20240398981A1, “NOVEL NANOPARTICLES OF ANTIRETROVIRAL DRUGS, THEIR PREPARATION AND THEIR USE FOR THE TREATMENT OF VIRAL INFECTIONS” (CENTRE NATIONAL DE LA RECHERCHE SCIENTIFIQUE, priority 2018, published 2024).

Experiments:
HIV-1BaL = assay: Inhibition of HIV-1 infection in monocyte-derived macrophages; format: cell-based; conditions: six days of culture, p24 in supernatants, dose-dependent
Protocol: (§1) FIG. 3 represents the inhibition of HIV-1 replication in AZT-NP-treated macrophages. Monocyte-derived macrophages were infected with CCR5-tropic HIV-1Ba-L for 3 h. After several washes, increasing concentrations of AZT derivatives were added to infected macrophages for 6 days of culture. The level of virus replication was monitored in culture supernatants by the p24 antigen capture ELISA. The infection inhibition is expressed as percentage of the average of three independent experiments (A). The frequency of infected cells was determined by flow cytometry after a costaining of macrophages with mAbs anti-CD206 (a marker of macrophages) and mAbs anti-p24 which target intracellular HIV-1 (B). Addition of AZT derivatives was followed by the increase of the size of macrophages as assessed by the Forward-Scattered light parameter (FSC) in flow cytometry (C). […] Using flow cytometry, the expression of the two HIV-1 coreceptors CCR5 (E) and CXCR4 (F) was determined at the surface of AZT derivatives-treated macrophages.
After 6 days of activation or differentiation, cells were washed twice and seeded into 96-well culture plates ([…]). […] The level of virus replication was monitored by HIV-1 p24 antigen ELISA.
Following six days of infection, the frequency of HIV-1-infected cells was determined by flow cytometry to detect intracellular HIV-1 p24 molecule. […]

CCR5 = assay: Surface expression of HIV-1 coreceptor on treated macrophages (flow cytometry); format: cell-based, human
Protocol: as §1
Following six days of infection, the frequency of HIV-1-infected cells was determined by flow cytometry to detect intracellular HIV-1 p24 molecule. […] Stained cells were immediately acquired on a FACScalibur (Becton Dickinson) and analyzed with FlowJo software.

HIV-1 = conditions: DCs infected, then treated with increasing concentrations, T cells added, 6 days
Protocol: The question of the impact of NP on HIV-1 transmission from DCs to autologous T cells was addressed. DCs were first infected with HIV-1, then incubated with increasing concentrations of AZT derivatives before T cells were added.
To assess the transmission of HIV-1 from DCs to autologous T-cells, DCs were incubated into 96-well culture plates (1×10^5 cells/well) and infected with HIV-1 (1 ng p24 antigen) for 3 h at 37° C. in a 5% CO2 atmosphere. Following four washes, DCs were shortly incubated with increasing concentrations of indicated molecules or AZT (2 μM), and autologous stimulated T cells were added onto HIV-exposed DCs at DC: T-cell ratio of 1:5. Cells were cultured for 6 days. Each sample was performed in triplicate. Culture supernatants were harvested every 3 days and fresh medium with compounds was added. Supernatants were inactivated with 1% Triton X-100 and frozen at −20° C. Viral production by T lymphocytes was evaluated at the sixth day of the co-culture by measurement of p24 antigen in supernatants using capture ELISA.

[1] = test system: J774A.1 mouse macrophages; assay: [3H]-AZT-TP cellular uptake; format: cell-based; conditions: J774A.1 cells, up to 8 hour exposure
Protocol: Nanoparticles containing [methyl-^3H]-AZT-TP were prepared and purified as described above then diluted 1:10 in cell culture medium (in order to maintain cell viability above 80% as determined by MTT tests), so to have 70 nCi/well. A control solution of AZT-TP at the same final radioactivity concentration was used for comparison.
Cells were recovered from the culture flasks, counted and seeded in 6-well plates, at a surface density of 800,000 cells/well for J774A.1 and 160,000 for THP-1 using 2 mL medium per well. After 24 h incubation, the medium was withdrawn and 2 mL of AZT-TP nanoparticles or free AZT-TP were added in each well. Nanoparticles and AZT-TP were incubated with cells for 2 and 8 hours, after which the uptake was stopped by removing the cell culture medium. The cells were washed twice with PBS (Lonza) to remove loosely bound compounds and then lysed with 1 mL Solvable (Perkin-Elmer, France). The radioactivity of the supernatant medium, the washing supernatants and the cell lysate were counted. The uptake kinetics of nanoparticle AZT-TP was studied for 2 and 8 hours and compared to that of free AZT-TP.

| SMILES | production of HIV-1 by macrophages (HIV-1BaL) | expression of HIV-1 coreceptor CCR5 at macrophage surface (CCR5) | production of HIV-1 after transmission from DCs to autologous T cells (HIV-1) | AZT-TP uptake [1] |
| --- | --- | --- | --- | --- |
| Cc1cn([C@H]2C[C@H](N=[N+]=[N-])[C@@H](CO)O2)c(=O)[nH]c1=O [AZT, zidovudine] | inhibited | did not interfere | inhibited |  |
| Cc1cn([C@H]2C[C@H](N=[N+]=[N-])[C@@H](COP(=O)(O)OP(=O)(O)OP(=O)(O)O)O2)c(=O)[nH]c1=O [AZT-TP] | inhibited | did not interfere | inhibited | around 3 nmol per million cells |
